Assay results as given in US20250296940A1, “ANNULATED 2-AMINO-3-CYANO THIOPHENES AND DERIVATIVES FOR THE TREATMENT OF CANCER” (Boehringer Ingelheim Int'l GmbH Corp., priority 2021, published 2025).

Assays:
[1] = Metabolic (microsomal) stability assay; type: in vitro ADME; conditions: human liver microsomes 1 mg/mL, 1 μM compound, 37° C.; predicted clearance as percent of liver blood flow
Method: The metabolic degradation of the test compound is assayed at 37° C. with pooled liver microsomes (mouse (MLM), rat (RLM) or human (HLM)). The final incubation volume of 48 μL per time point contains TRIS buffer (pH 7.5; 0.1 M), magnesium chloride (6.5 mM), microsomal protein (0.5 mg/mL for mouse/rat, 1 mg/mL for human specimens) and the test compound at a final concentration of 1 μM. Following a short preincubation period at 37° C., the reactions are initiated by addition of 12 μL beta-nicotinamide adenine dinucleotide phosphate, reduced form (NADPH, 10 mM) and terminated by transferring an aliquot into solvent after different time points (0, 5, 15, 30, 60 min). Additionally, the NADPH-independent degradation is monitored in incubations without NADPH, terminated at the last time point by addition of acetonitrile. The quenched incubations are pelleted by centrifugation (4,000 rpm, 15 min). An aliquot of the supernatant is assayed by LC-MS/MS to quantify the concentration of parent compound in the individual samples.
In vitro intrinsic clearance (CLint, in vitro) is calculated from the time course of the disappearance of the test drug during the microsomal incubation. Each plot is fitted to the first-order elimination rate constant as C(t)=C0*exp(−ke*t), where C(t) and C0 are the concentration of unchanged test drug at incubation time t and that at preincubation and ke is the disappearance rate constant of the unchanged drug. Subsequently, CLint, in vitro (μL min^−1·amount protein) values are converted to predicted CLint,in vivo (mL min^−1·kg^−1) from incubation parameters according to the equation CLint, in vivo=CLint, in vitro×(incubation volume (ml)/amount protein (mg))×(amount protein (mg)/g liver tissue)×(liver weight/body wt.).
For better across species comparison the predicted clearance is expressed as percent of the liver blood flow [% QH](mL min^−1 kg^−1) in the individual species. In general, high stability (corresponding to low % QH) of the compounds across species is desired.
Metabolic stability data obtained with the disclosed assay in HLM for a selection of compounds (I) according to the invention: […]

[2] = test system: NCI-H358 cells (NSCLC, G12C); assay: NCI-H358 CTG proliferation assay (120 h); type: cell-based; conditions: Homo sapiens, NCI-H358, CellTiter-Glo
Method: NCI-H358 cells (ATCC No. CRL-5807) are dispensed into white bottom opaque 96 well plates (Perkin Elmer cat no. 5680) at a density of 2000 cells per well in 100 μL RPMI-1640 ATCC-Formulation (Gibco #A10491)+10% FCS (fetal calf serum). […] Compounds (10 mM stock in DMSO) are added at logarithmic dose series using the HP Digital Dispenser D300 (Tecan), normalizing for added DMSO and including DMSO controls. For the TO time point measurement, untreated cells are analyzed at the time of compound addition. Plates are incubated for 120 h, and cell viability is measured using CellTiter-Glo luminescent cell viability reagent (Promega product code G7570). Viability (stated as percent of control) is defined as relative luminescence units RLU of each well divided by the RLU of cells in DMSO controls. IC50 values are determined from viability measurements by non-linear regression using a four parameter model.
IC50 values of representative compounds according to the invention measured with these assays in the indicated cell lines: […]

[3] = test system: pERK (Thr202/Tyr204) in NCI-H358 cells (KRAS G12C mutation); assay: ERK phosphorylation assay (assay 1, NCI-H358); type: cell-based; conditions: Homo sapiens; NCI-H358 (assay 1), 1 h compound incubation
Excerpt: Low IC50 values in this assay setting are indicative of high potency of the compounds according to the invention. […]
• RPMI-1640 Medium (ATCC® 30-2001™) • Fetal Bovine Serum (FBS) from HyClone (SH30071.03) • Non-essential amino acids from Thermo Fischer Scientific (11140035) • Pyruvate from Thermo Fischer Scientific (11360039) • Glutamax from Thermo Fischer Scientific (35050061) • 384 plates from Greiner Bio-One (781182) • Proxiplate™ 384 from PerkinElmer Inc. (6008280) • AlphaLISA SureFire Ultra p-ERK1/2 (Thr202/Tyr204) Assay Kit (ALSU-PERK-A500) EGF from Sigma (E4127) • Acceptor Mix: Protein A Acceptor Beads from PerkinElmer (6760137M) • Donor Mix: AlphaScreen Streptavidin-coated Donor Beads from PerkinElmer (6760002) • Trametinib • Staurosporine from Sigma Aldrich (S6942)
Cells are seeded at 40,000 cells per well in/60 μL of RPMI with 10% FBS, non-essential amino acids, pyruvate and glutamax in Greiner TC 384 plates. The cells are incubated for 1 h at room temperature and then incubated overnight in an incubator at 37° C. and 5% CO2 in a humidified atmosphere. 60 nL compound solution (10 mM DMSO stock solution) is then added using a Labcyte Echo 550 device. After a 1 h incubation in the aforementioned incubator the medium is removed after centrifugation and the cells lysed by addition of 20 μL of 1.6-fold lysis buffer from the AlphaLISA SureFire Ultra pERK1/2 (Thr202/Tyr204) Assay Kit with added protease inhibitors, 100 nM trametinib+100 nM staurosporine. After 20 minutes of incubation at room temperature with shaking, 6 μL of each lysate sample is transferred to a 384-well Proxiplate and analyzed for pERK (Thr202/Tyr204) with the AlphaLISA SureFire Ultra pERK1/2 (Thr202/Tyr204) Assay Kit. 3 μL Acceptor Mix and 3 μL Donor Mix are added under subdued light and incubated for 2 h at room temperature in the dark, before the signal is measured on a PerkinElmer Envision HTS Multilabel Reader. The raw data were imported into and analyzed with the Boehringer Ingelheim proprietary software MegaLab (curve fitting based on the program PRISM, GraphPad Inc.).
IC50 values of representative compounds (I) according to the invention measured with this assay are presented in table 22 (IC50s from assay 2 are marked with *, all others are from assay 1).

HLM QH [1] [%] | IC50 [2] [nM] | IC50 [3] [nM] | SMILES
<24 | < 1 | 1.1 | C=CC(=O)N1[C@@H](C)CN(c2cc(O[C@@H](C)[C@@H]3CCCN3C)nc(-c3onc4c3CCC[C@@]43CCCc4sc(N)c(C#N)c43)n2)C[C@@H]1C [Ia-2]
41 | 7 | 16.4 | C=C(F)C(=O)N1[C@@H](C)CN(c2cc(-c3onc4c3CCC[C@@]43CCCc4sc(N)c(C#N)c43)nc(O[C@@H](C)[C@@H]3CCCN3C)n2)C[C@@H]1C [Ia-3]
28 | < 1 |  | C=CC(=O)N1[C@@H](C)CN(c2cc(-c3onc4c3CCC[C@@]43CCCc4sc(N)c(C#N)c43)nc(O[C@@H](C)[C@@H]3CCCN3C)n2)C[C@@H]1C [Ia-4]
34 | < 1 | 1.3 | C=CC(=O)N1[C@@H](C)CN(c2cc(O[C@@H](C)[C@@H]3CCCN3C)nc(-c3noc4c3CCC[C@@]43CCCc4sc(N)c(C#N)c43)n2)C[C@@H]1C [Ib-3]
45 | < 1 | 0.4 | C=CC(=O)N1[C@@H](C)CN(c2cc(-c3noc4c3CCC[C@@]43CCCc4sc(N)c(C#N)c43)nc(O[C@@H](C)[C@@H]3CCCN3C)n2)C[C@@H]1C [Ib-4]

More lines, now with the values behind:

SMILES | HLM QH [1] [%] | IC50 [2] [nM] | IC50 [3] [nM]
C=C(F)C(=O)N1[C@@H](C)CN(c2cc(O[C@@H](C)[C@@H]3CCCN3C)nc(-c3onc4c3CCC[C@@]43CCCc4sc(N)c(C#N)c43)n2)C[C@@H]1C [Ia-1] | <24 | 1 | 8.4
C[C@H](Oc1cc(N2C[C@H](C)N(C(=O)/C=C/CF)[C@@H](C)C2)nc(-c2noc3c2CCC[C@@]32CCCc3sc(N)c(C#N)c32)n1)[C@@H]1CCCN1C [Ib-1] | <24 | 1 | 4.2
C=CC(=O)N1CCN(c2cc(O[C@@H](C)[C@@H]3CCCN3C)nc(-c3noc4c3CCC[C@@]43CCCc4sc(N)c(C#N)c43)n2)CC12CC2 [Ib-2] | <24 | 1 | 1
C=C(F)C(=O)N1[C@@H](C)CN(c2cc(O[C@@H](C)[C@@H]3CCCN3C)nc(-c3noc4c3CCC[C@@]43CCCc4sc(N)c(C#N)c43)n2)C[C@@H]1C [Ib-5] | <24 | 1 | 7.7
C=C(F)C(=O)N1[C@@H](C)CN(c2cc(-c3noc4c3CCC[C@@]43CCCc4sc(N)c(C#N)c43)nc(O[C@@H](C)[C@@H]3CCCN3C)n2)C[C@@H]1C [Ib-6] | 72 | 2 | 5.3
C[C@H](Oc1nc(-c2noc3c2CCC[C@@]32CCCc3sc(N)c(C#N)c32)cc(N2C[C@H](C)N(C(=O)/C=C/CF)[C@@H](C)C2)n1)[C@@H]1CCCN1C [Ib-7] | 64 | 4 | 4.7
C[C@H](Oc1nc(-c2noc3c2CCC[C@@]32CCCc3sc(N)c(C#N)c32)cc(N2C[C@H](C)N(C(=O)/C=C/c3cccnc3)[C@@H](C)C2)n1)[C@@H]1CCCN1C [Ib-8] | 49 | 85 | 26.9
COC/C=C/C(=O)N1[C@@H](C)CN(c2cc(-c3noc4c3CCC[C@@]43CCCc4sc(N)c(C#N)c43)nc(O[C@@H](C)[C@@H]3CCCN3C)n2)C[C@@H]1C [Ib-9] | 76 | 90 | 373
